Data taken from patent US20040248223A1, “Reduction of interfering peroxidase activity in peroxidase based detection methods” (IDEXX Laboratories, Inc., priority 2003, published 2004).
Where two headings read alike, the source gives them in different places.

Legend:
MPO = MPO (Homo sapiens, UniProt P05164)
Description: (§1) Assays were run to determine the selectivity of azide for interference from EPO, MPO and hemoglobin. Activities were measured in solution using a peroxidase substrate consisting of, per liter, 1.4 mmol of TMB, 0.3 mmol of hydrogen peroxide, 20 mmol of sodium chloride, 30 mg of Triton X-100, and 100 g of sucrose. HRP was a conjugate of chicken antibody (used in Example 1). MPO and EPO were essentially homogeneous commercial preparations isolated from human leukocytes. Hemoglobin (Hgb) was obtained as a Triton X-100 lysate of feline erythrocytes.

EPO = EPO (Homo sapiens, UniProt P11678)
Description: as §1

Hemoglobin (Hgb) = Hemoglobin (Hgb) (Felis catus, UniProt P07405+P07412)
Description: as §1

HRP [1] = molecular target: T1, HRP (Armoracia rusticana, UniProt P00433)
Description: as §1

[2] = Description: Above pH 6 the activity of some peroxidase substrates declines. […] Incubation times longer than 30 minutes have not been very useful in peroxidase-based analysis due to substrate evaporation and gradual inactivation of peroxidase by peroxide, which occurs naturally after a limited number of catalytic cycles.
[3] = even down to pH 3; cited from earlier work
HRP [4] = molecular target: T1, HRP; details: for effect on assay sensitivity: both substrates (TMBlue, TMBM); for 50 μM azide (mA) / 100 μM azide (mA) / 500 μM Azide (mA): serum
Description: (§2) SLF5 glass fiber discs, 6.4 mm diameter (Whatman, Inc.) were sensitized with 13 μL of 1 mg/mL rabbit anti-heartworm antibody containing 0.7% sodium bicarbonate, 2% sucrose, and 30 μg/mL FDC Blue 1 dye. Heartworm antibody can be produced from heartworm antigen prepared by disrupting a parasitic worm in an aqueous buffer solution, centrifuging to remove insoluble and particulate components, adding of trichloroacetic acid to a concentration of 15% w/v, centrifuging to remove insoluble components, dialyzing against an aqueous buffer solution and lyophilizing. This antigen preparation is used to produce antibodies in mammals using standard methods (see, e.g., Harlow, E. and D. Lane, 1988, “Antibodies: A Laboratory manual”, Cold Spring Harbor Laboratory, Cod Spring Harbor, N.Y., USA, ISBN 0-87969-314-2 pp 92-286).
(§3) The discs were washed with buffer containing, per liter, 25 mmol of 3-(N-morpholino)-2-hydroxypropane sulfonic acid MOPSO, 100 mmol of NaCl, 1 g of Brij® 35 and 1 g of tetrasodium EDTA, pH 7.4. Two 15 μL drops of a mixture of 100 μL of whole canine blood containing 950 eosinophils per μL (normal range: 100-1500 eosinophils per μL), 0.5%-25% v/v of heartworm extract in fetal bovine serum and 25 μL of 100 μg/mL of chicken anti-heartworm HRP-conjugated antibody was added to the glass fiber disc and allowed to incubate for 5 minutes at 23C. The discs were washed with a buffered bland protein solution containing 1% Triton X-100 and transferred to polystyrene microwells.
(§4) A peroxidase substrate containing 100 μmol per liter of sodium azide, was added to the discs and allowed to incubate for 10 minutes, after which time the amount of blue color produced was measured by bichromatic absorbance at 650 nm-562 nm, compensating the background contribution from the glass fiber matrix. Duplicate discs were also processed in an identical manner except these were incubated instead with the peroxidase substrate but lacking in azide.
The TMBlue® substrate was incubated with the glass fiber discs for 3 minutes and TMBM substrate was incubated for 15 minutes until bichromatic measurement at 650 mn-562 nm.

[5] = system: endogenous canine peroxidase; details: 100 μmol per liter sodium azide, whole canine blood, 10 minutes
Description: as §2, §3, §4

[6] = TMBM substrate, 15 minutes, heartworm antigen 0%
[7] = TMBM substrate, 15 minutes, heartworm antigen 5%
[8] = TMBM substrate, 15 minutes, heartworm antigen 10%
[9] = TMBM substrate, 15 minutes, heartworm antigen 25%
[10] = TMBM substrate, 15 minutes, heartworm antigen 50%
[11] = TMBM substrate, 15 minutes, heartworm antigen 100%
[12] = TMBlue substrate, 3 minutes, heartworm antigen 0%
[13] = TMBlue substrate, 3 minutes, heartworm antigen 5%
[14] = TMBlue substrate, 3 minutes, heartworm antigen 10%
[15] = TMBlue substrate, 3 minutes, heartworm antigen 25%
[16] = TMBlue substrate, 3 minutes, heartworm antigen 50%
[17] = TMBlue substrate, 3 minutes, heartworm antigen 100%

T1 sequence (P00433 31-338): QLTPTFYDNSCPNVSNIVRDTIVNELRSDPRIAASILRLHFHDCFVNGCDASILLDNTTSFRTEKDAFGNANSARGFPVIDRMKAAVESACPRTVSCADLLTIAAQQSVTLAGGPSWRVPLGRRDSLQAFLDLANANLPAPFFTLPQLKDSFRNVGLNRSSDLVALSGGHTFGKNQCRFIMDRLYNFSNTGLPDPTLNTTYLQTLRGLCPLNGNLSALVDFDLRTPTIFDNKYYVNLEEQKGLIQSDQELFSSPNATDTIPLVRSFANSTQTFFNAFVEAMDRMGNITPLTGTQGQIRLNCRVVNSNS
MPO, sequence (P05164 279-745 limits assumed): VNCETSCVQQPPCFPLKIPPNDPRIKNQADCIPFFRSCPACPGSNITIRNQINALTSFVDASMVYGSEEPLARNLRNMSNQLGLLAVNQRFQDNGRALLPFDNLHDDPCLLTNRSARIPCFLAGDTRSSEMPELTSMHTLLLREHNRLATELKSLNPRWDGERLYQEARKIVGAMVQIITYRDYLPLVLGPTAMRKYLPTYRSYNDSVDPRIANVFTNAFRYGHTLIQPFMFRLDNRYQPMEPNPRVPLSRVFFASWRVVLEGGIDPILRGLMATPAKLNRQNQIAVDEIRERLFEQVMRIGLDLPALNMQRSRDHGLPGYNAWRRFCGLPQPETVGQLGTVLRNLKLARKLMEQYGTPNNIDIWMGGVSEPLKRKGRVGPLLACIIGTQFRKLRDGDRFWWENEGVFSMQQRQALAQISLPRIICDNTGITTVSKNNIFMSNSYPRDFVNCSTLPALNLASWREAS
MPO, sequence (P05164 165-273 limits assumed): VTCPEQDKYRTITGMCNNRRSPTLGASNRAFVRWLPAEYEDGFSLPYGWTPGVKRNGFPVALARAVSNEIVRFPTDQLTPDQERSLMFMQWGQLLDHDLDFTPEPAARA
Hemoglobin (Hgb), sequence (P07405 whole entry): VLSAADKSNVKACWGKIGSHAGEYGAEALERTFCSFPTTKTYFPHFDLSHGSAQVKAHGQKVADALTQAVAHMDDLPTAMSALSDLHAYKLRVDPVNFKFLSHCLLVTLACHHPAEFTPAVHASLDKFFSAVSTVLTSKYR
Hemoglobin (Hgb), sequence (P07412 whole entry): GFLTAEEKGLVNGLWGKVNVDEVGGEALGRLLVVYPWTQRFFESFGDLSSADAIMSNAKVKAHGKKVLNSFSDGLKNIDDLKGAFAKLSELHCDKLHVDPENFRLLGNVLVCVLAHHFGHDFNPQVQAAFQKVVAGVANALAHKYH
EPO, sequence (P11678 251-715 limits assumed): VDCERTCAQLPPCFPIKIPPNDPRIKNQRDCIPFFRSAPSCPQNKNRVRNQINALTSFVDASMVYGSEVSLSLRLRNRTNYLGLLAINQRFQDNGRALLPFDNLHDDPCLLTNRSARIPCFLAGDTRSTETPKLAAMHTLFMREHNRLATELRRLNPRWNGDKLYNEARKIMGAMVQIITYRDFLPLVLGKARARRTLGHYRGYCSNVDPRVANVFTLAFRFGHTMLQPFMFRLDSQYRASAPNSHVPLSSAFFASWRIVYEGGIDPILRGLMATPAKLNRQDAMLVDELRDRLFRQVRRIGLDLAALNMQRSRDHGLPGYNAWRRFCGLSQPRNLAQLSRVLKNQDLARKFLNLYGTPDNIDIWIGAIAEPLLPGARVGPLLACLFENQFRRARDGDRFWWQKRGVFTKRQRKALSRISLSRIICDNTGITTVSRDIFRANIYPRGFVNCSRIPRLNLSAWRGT
EPO, sequence (P11678 140-250 limits assumed): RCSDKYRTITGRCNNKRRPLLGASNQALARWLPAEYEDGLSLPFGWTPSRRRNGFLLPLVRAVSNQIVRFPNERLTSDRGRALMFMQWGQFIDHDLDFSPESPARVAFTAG

## [N-]=[N+]=[N-].[Na+] [azide, sodium azide]
MPO; 3 μM azide
  % of control activity (without azide), MPO: 63.1%
MPO; 30 μM azide
  % of control activity (without azide), MPO: 15.5%
EPO; 3 μM azide
  % of control activity (without azide), EPO: 13.4%
EPO; 30 μM azide
  % of control activity (without azide), EPO: 0.7%
Hemoglobin (Hgb); 3 μM azide
  % of control activity (without azide), Hgb: 99.7%
Hemoglobin (Hgb); 30 μM azide
  % of control activity (without azide), Hgb: 26.4%
HRP [1]; 3 μM azide
  % of control activity (without azide), HRP: 101%
HRP [1]; 30 μM azide
  % of control activity (without azide), HRP: 83.5%
[2]; microwell, 100 μL of 5 mM azide in succinate buffer, below pH 4.5, less than a half hour
  fraction of azide that evaporates: One-half to two-thirds
[2]; microwell, 100 μL of 5 mM azide in succinate buffer, pH 5.0
  fraction of azide lost: one-third
[2]; pH 5.5 and above, over a half hour
  loss of azide: no significant loss
[3]
  loss of azide from closed containers: no azide is lost
HRP [4]; 500 μM azide
  effect on assay sensitivity: the decrease in sensitivity is not severe
HRP [4]; [6]
  50 μM azide (mA): 46 mA
  100 μM azide (mA): 73 mA
HRP [4]; [7]
  50 μM azide (mA): 138 mA
  100 μM azide (mA): 123 mA
HRP [4]; [8]
  50 μM azide (mA): 196 mA
  100 μM azide (mA): 197 mA
HRP [4]; [9]
  50 μM azide (mA): 264 mA
  100 μM azide (mA): 324 mA
HRP [4]; [10]
  50 μM azide (mA): 535 mA
  100 μM azide (mA): 511 mA
HRP [4]; [11]
  50 μM azide (mA): 776 mA
  100 μM azide (mA): 800 mA
HRP [4]; TMBM substrate, 15 minutes, 500 μM azide, heartworm antigen 0%
  500 μM Azide (mA): 37 mA
HRP [4]; TMBM substrate, 15 minutes, 500 μM azide, heartworm antigen 5%
  500 μM Azide (mA): 70 mA
HRP [4]; TMBM substrate, 15 minutes, 500 μM azide, heartworm antigen 10%
  500 μM Azide (mA): 112 mA
HRP [4]; TMBM substrate, 15 minutes, 500 μM azide, heartworm antigen 25%
  500 μM Azide (mA): 173 mA
HRP [4]; TMBM substrate, 15 minutes, 500 μM azide, heartworm antigen 50%
  500 μM Azide (mA): 363 mA
HRP [4]; TMBM substrate, 15 minutes, 500 μM azide, heartworm antigen 100%
  500 μM Azide (mA): 491 mA
HRP [4]; [12]
  50 μM azide (mA): 22 mA
  100 μM azide (mA): 31 mA
HRP [4]; [13]
  50 μM azide (mA): 64 mA
  100 μM azide (mA): 110 mA
HRP [4]; [14]
  50 μM azide (mA): 119 mA
  100 μM azide (mA): 150 mA
HRP [4]; [15]
  50 μM azide (mA): 270 mA
  100 μM azide (mA): 395 mA
HRP [4]; [16]
  50 μM azide (mA): 408 mA
  100 μM azide (mA): 628 mA
HRP [4]; [17]
  50 μM azide (mA): 646 mA
  100 μM azide (mA): 1046 mA
HRP [4]; TMBlue substrate, 3 minutes, 500 μM azide, heartworm antigen 0%
  500 μM Azide (mA): 21 mA
HRP [4]; TMBlue substrate, 3 minutes, 500 μM azide, heartworm antigen 5%
  500 μM Azide (mA): 73 mA
HRP [4]; TMBlue substrate, 3 minutes, 500 μM azide, heartworm antigen 10%
  500 μM Azide (mA): 121 mA
HRP [4]; TMBlue substrate, 3 minutes, 500 μM azide, heartworm antigen 25%
  500 μM Azide (mA): 265 mA
HRP [4]; TMBlue substrate, 3 minutes, 500 μM azide, heartworm antigen 50%
  500 μM Azide (mA): 462 mA
HRP [4]; TMBlue substrate, 3 minutes, 500 μM azide, heartworm antigen 100%
  500 μM Azide (mA): 734 mA
HRP [4]; up to 100 μM azide
  effect on assay sensitivity: does not produce a significant diminution of assay sensitivity
[5]; antigen 0%
  azide added mA650-562: 118 mA
[5]; antigen 0.5%
  azide added mA650-562: 97 mA
[5]; antigen 1%
  azide added mA650-562: 123 mA
[5]; antigen 2.5%
  azide added mA650-562: 147 mA
[5]; antigen 5%
  azide added mA650-562: 149 mA
[5]; antigen 10%
  azide added mA650-562: 179 mA
[5]; antigen 25%
  azide added mA650-562: 305 mA
